# Measured values reported in patent publication US11998549B2, “Methods of treating a vascular leakage-associated disease or disorder” (UNITY HEALTH TORONTO, priority 2019, dated 2024).
# How the values were obtained:
# [1] = tested on: human pulmonary microvascular endothelial cells (HPMECs); experiment: FITC dextran permeability assay in HPMEC monolayer; assay type: cell-based; conditions: FITC-conjugated dextran
# Source text: Cultured endothelial cells are used to model the microvascular endothelium, because of the feasibility of performing complex molecular or pharmacological experiments to study cellular signalling pathways related to barrier function and integrity. In addition, the lung is the organ most often affected by sepsis induced-MODS. To determine the functional significance of G9a inhibition in human cells, solute permeability and electrical resistance across a confluent human pulmonary microvascular endothelial cell (HPMEC) monolayer was assessed. For both experiments HPMECs were seeded on 0.4 μm-pore polyester transwells (Costar) coated with Attachment Factor (Invitrogen), grown to confluency, and then […] with either UNC0462 or vehicle control.
# FITC fluorescence was be measured at different time intervals in samples taken from the bottom compartment as a measure of paracellular dextran leak.
# [2] = tested on: H3K9me2 in venous endothelial cell nuclei; experiment: H3K9me2 immunofluorescence in zebrafish larvae; assay type: in vivo; conditions: LPS 100 μg/ml + 1 μM UNC0642, 5 h
# Method: 3 dpf Tg eGFP) larvae were exposed to Vehicle, LPS (100 μg/ml) or LPS+1 μM UNC0642 by static immersion for 5 h at 28.5° C. Embryos were fixed overnight at 4° C. in 2% PFA in PBST (PBS+0.1% Tween 20). Embryos were then washed 4×5 min in PBST at room temperature (RT) and permeabilized for 30 min at RT in PBST+0.5% TritonX-100. Embryos were then blocked in PBST+0.1% TritonX-100+10% NGS+1% BSA for 2 h at RT. Embryos were incubated with primary antibodies (Mouse monoclonal (mAbcam 1220) to Histone H3 (di-methyl K9) in blocking solution (1:200) overnight at 4° C. Embryos were then washed 6×20 min in PBST at RT and then incubated with the secondary antibody (Goat anti-mouse IgG Alexa fluor 647; 1:1000) in blocking solution for 2 h at RT. Embryos were finally washed 3×10 min in PBST at RT. Images were taken with a Zeiss Confocal Microscope.
smiles,measurement,setting,value
"COc1cc2c(NC3CCN(C(C)C)CC3)nc(N3CCC(F)(F)CC3)nc2cc1OCCCN1CCCC1 [UNC0642, 2-(4,4-Difluoropiperidin-1-yl)-6-methoxy-N-[1-(propan-2-yl)piperidin-4-yl]-7-(3-(pyrrolidin-1-yl)propoxy]quinazolin-4-amine]",LPS-induced endothelial barrier dysfunction (increased dextran leakage),[1],significantly mitigate
same,LPS induced increased H3K9me in venous endothelial cell nuclei,[2],rescues LPS induced increased H3K9me
